Assay results from patent US8916561B2, “Substituted quinoxaline compounds for the inhibition of PASK” (BioEnergenix, LLC, priority 2011, dated 2014).
pIC50: −log10 of the molar value.

Tests used:
[1] = target: T1, PASK (UniProt #Q96RG2; human recombinant N-terminal GST tagged construct, residues 879-1323) (Homo sapiens, UniProt Q96RG2); assay: PASK ATP Radiochemical Assay; format: biochemical; details: 33P-ATP radiochemical assay, Myelin Basic Protein substrate; read-out: IC50 Kinase Domain
T1 construct: human recombinant N-terminal GST tagged construct, residues 879-1323; GST (N); host or cells: insect cells
T1 sequence (Q96RG2 879-1323, stated change not applied): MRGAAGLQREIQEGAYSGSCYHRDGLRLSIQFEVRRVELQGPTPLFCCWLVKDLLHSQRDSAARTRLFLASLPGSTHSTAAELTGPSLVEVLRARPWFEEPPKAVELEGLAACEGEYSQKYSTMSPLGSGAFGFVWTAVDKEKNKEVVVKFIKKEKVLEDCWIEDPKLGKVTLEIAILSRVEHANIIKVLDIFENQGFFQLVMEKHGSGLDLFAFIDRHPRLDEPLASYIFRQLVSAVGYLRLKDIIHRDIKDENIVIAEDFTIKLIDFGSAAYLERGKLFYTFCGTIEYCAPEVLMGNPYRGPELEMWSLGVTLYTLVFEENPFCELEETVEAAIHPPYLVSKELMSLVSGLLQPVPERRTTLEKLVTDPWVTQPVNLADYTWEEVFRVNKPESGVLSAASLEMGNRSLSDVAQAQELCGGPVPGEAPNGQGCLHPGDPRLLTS
Procedure: Purified PASK (UniProt #Q96RG2; human recombinant N-terminal GST tagged construct, residues 879-1323) from insect cells (final concentration 5 nM) is added to freshly prepared Base Reaction Buffer containing 20 mM HEPES (pH 7.5), 10 mM MgCl2, 1 mM EGTA, 0.02% Brij35, 0.02 mg/ml BSA, 0.1 mM Na3VO4, 2 mM DTT, 1% DMSO and Myelin Basic Protein (20 μM final). Test compounds in DMSO are then added and the mixture, followed by delivery of ^33P-ATP (specific activity 0.01 μCi/μl final) to initiate the reaction. The kinase reaction is incubated for 120 min at room temperature. The entire reaction mixture is washed through onto a P81 Phosphocellulose paper and washed three times for 10 minutes in 75 mM phosphoric acid and once in methanol prior to drying and scintillation counting.

[2] = target: T2, PASK (Invitrogen) (Homo sapiens, UniProt Q96RG2); assay: PAS Kinase FRET Assay; format: biochemical; details: TR-FRET (665 nm/615 nm), Ulight-peptide substrate; read-out: IC50 Kinase Domain
T2 construct: IC50 Kinase Domain; purchased Invitrogen
T2 sequence (Q96RG2 999-1251 limits assumed): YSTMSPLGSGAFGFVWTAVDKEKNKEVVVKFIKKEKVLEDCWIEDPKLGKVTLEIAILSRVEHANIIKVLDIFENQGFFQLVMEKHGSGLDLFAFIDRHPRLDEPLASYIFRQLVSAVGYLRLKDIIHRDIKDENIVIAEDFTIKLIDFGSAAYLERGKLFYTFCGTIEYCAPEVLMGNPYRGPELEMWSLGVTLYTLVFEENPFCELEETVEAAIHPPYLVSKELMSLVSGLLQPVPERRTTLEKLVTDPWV
Text: The aim of the FRET assay is to determine the inhibition potential of test compounds on targeted kinase. This assay platform provides a homogenous screening method for measuring kinase activity by quantitating the amount of phospho-substrate in solution following a kinase reaction.
In the presence of kinase and ATP, the Ulight-peptide is phosphorylated and captured by an anti-phospho-substrate antibody, which brings the Eu chelate donor and Ulight acceptor dyes into close proximity. Upon excitation at 340 nm, the Eu chelate transfers its energy to the Ulight dye, resulting in a fluorescent light emission at 665 nm.
Titration of kinase at 1 mM ATP was achieved via the following protocol. After making serial three-fold dilutions of PASK (Invitrogen) in reaction buffer across the plate; 5 μl of kinase dilution and 5 μl substrate/ATP mix were added to the wells of the white Optiplate-384 (PerkinElmer). The contents of the plate were incubated at RT for 1 h. The reaction was stopped by adding 5 μl of stop solution to each test well followed by mixing and incubation at RT for 10 minutes. 5 μl of detection mix (detection antibody diluted in detection butler) was added; the contents of the plate were mixed and then incubated in the dark for 1 hour at RT. The signal was recorded at TR-FRET mode (665 nm/615 nm), The results were graphed to calculate the EC50.
Titration of ATP at the EC50 concentration of kinase to determine ATP Km,app. was performed using the following method. After making serial dilutions of ATP (Invitrogen), 5 μl of ATP dilution and 5 μl substrate/kinase mix were added to the wells of the white Optiplate-384 (PerkinElmer). The contents of the plate were and incubated at RT for 1 h. The reaction was stopped by adding 5 μl of stop solution to each test well followed by mixing and incubation at RT for 10 minutes. 5 μl of detection mix (detection antibody diluted in detection buffer) was added; the contents of the plate were mixed and then incubated in the dark for 1 hour at RT. The signal was recorded at TR-FRET mode (665 nm/615 nm). The results were graphed to calculate the EC50 as the ATP Km,app.
Compound screening was done via the following method. 10 mM stock solution of test compound in DMSO was prepared by dissolving test compound in DMSO at RT for 1 hour, and then sonicating at 100% output for 8 minutes. If compound is not soluble under this condition, it was diluted to 3 mM. Kinase reaction buffer was prepared containing 10 mM MgCl2, 50 mM HEPES, 1 EGTA, 0.01% TWEEN-20, 2 mM WT. Serial dilutions of the test compounds were prepared at 4× final assay concentrations using Freedom EVO200® dispensing system as follows: 12×10^−5M, 4×10^−5 M, 1.33×10^−5M, 4.44×10^−6 M. 1.48×10^−6 M, 4.92×10^−7 M, 1.65×10^−7 M, […], 1.82×10^−8 M, 6.09×10^−9, 2.03×10^−9 M. Test compounds (2.5 μl at 4× the final assay concentration) was added to wells using Freedom EVO200® dispensing system. As a positive control, 2.5 μl of positive compound was added to assay wells, and 2.5 μl of DMSO to assay wells as vehicle control. Kinase solution was prepared in reaction buffer at 2× final assay concentration. Kinase solution (5 μl) was added to each well of the assay plate. The substrate and ATP solution was prepared in kinase reaction buffer at 4× final assay concentration. The kinase reaction was started by adding 2.5 μl of substrate+ATP mix solution to each well of the assay plate. The plate is mixed on a plate shaker; then covered and allowed to react for 2 hours in the dark at 25° C. without shaking. The reaction was stopped by adding 5 μl of stop solution to each test well followed by mixing and incubation at RT for 10 minutes in the dark. 5 μl of detection mix (detection antibody diluted in detection buffer) was added; the contents of the plate were mixed and then incubated in the dark for 1 hour at RT. The signal was recorded at TR-FRET mode (665 nm/615 nm).

[3] = target: hPASK (Homo sapiens, UniProt Q96RG2); assay: Cell assay for hPASK activity, phospho-AKT substrate antibody; format: cell-based; set-up: expressed in transfected cells; host or cells: HEK293T; details: HEK293T cells transfected with V5-tagged PASK, phospho-AKT substrate antibody Western blot
hPASK, sequence (Q96RG2 whole entry): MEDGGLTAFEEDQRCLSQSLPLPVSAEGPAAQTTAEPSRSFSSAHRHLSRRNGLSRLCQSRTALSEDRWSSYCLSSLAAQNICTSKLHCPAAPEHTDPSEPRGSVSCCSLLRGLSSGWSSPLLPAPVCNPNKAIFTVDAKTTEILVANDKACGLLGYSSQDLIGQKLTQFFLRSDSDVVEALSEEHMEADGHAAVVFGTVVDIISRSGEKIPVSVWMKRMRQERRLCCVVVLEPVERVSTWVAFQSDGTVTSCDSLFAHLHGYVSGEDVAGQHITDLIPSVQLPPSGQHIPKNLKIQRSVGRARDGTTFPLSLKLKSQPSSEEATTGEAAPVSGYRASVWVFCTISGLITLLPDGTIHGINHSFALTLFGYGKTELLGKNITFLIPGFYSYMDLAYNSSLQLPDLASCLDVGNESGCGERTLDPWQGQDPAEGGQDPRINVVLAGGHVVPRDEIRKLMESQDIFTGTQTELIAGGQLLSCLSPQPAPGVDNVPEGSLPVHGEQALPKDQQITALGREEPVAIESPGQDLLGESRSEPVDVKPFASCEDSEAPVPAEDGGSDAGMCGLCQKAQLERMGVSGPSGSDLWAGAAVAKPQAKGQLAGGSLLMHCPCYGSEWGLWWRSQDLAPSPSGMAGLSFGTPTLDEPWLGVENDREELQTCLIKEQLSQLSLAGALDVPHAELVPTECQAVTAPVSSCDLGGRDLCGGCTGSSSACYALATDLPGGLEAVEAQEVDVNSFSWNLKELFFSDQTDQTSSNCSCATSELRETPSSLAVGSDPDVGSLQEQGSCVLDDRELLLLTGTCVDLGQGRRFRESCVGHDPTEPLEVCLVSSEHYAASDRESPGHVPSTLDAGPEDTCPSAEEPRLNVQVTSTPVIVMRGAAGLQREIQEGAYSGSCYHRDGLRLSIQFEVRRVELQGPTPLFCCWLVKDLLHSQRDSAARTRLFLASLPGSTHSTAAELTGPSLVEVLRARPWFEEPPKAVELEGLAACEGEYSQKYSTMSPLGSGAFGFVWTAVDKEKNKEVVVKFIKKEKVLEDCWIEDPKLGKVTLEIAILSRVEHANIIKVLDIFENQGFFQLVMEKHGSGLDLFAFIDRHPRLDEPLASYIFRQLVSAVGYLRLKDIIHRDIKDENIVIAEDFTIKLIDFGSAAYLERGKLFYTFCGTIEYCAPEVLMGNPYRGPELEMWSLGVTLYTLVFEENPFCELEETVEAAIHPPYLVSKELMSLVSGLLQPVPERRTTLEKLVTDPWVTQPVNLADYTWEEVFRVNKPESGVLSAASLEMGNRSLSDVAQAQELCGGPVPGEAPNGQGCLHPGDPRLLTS
Procedure: The assay applies the ability of PASK to autophoshorylate in vivo on the sequence recognized by phospho-Akt substrate antibody (110B7E, Cell Signaling). Cell line HEK293T is transfected with vector (pcDNA 3.1-PASK) expressing V5-tagged wilde-type of PASK. Transfected cells are then treated with putative inhibitors of PASK. Twenty-four hours post treatment cells are lysed and PASK is separated from cellular proteins by immunoprecipitation with V5-conjugated beads (Sigma). PASK is released from immunocomlexes, separated on the SDS-PAGE gel and transferred on nitrocellulose membrane. Fraction of PASK phosphorylated on phospho-AKT Substrate site(s) is determined by probing with phospho-AKT antibody and normalized to total PASK level present in the same immunoprecipitates. We have shown the correlation between phosphorylation of phospho-AKT Substrate sequence and inhibition of PASK activity in vivo.
HEK293T cells are maintained and propagated in 10 cm dish in 10 ml of DMEM/10% FBS, split and re-seeded in 6 well plate (10^6 cells/well) in 2 ml of DMEM/10% FBS. Cells are transfected 18 hours post plating with lug of construct expressing wild-type of hPASK using lipofectamine 2000 according to the manufacturers protocol (Invitrogen). Cells expressing PASK are treated either with DMSO or PASK inhibitors. […] Intensities of the bands are quantitated and data normalized.

Measured: pIC50

CC(C)N(C)c1nc2cc(C(N)=O)ccc2nc1-c1ccc(F)cc1 [Example 1, 2-(4-Fluorophenyl)-3-(isopropyl(methyl)amino)quinoxaline-6-carboxamide]
≥ 5.00: all assays above
